Measured values published in patent US8435978B2, “Substituted sulfonamide compounds” (Gruenenthal GmbH, priority 2006, dated 2013).
Where a name gives a salt, the structure may show the parent alone.

How the values were obtained:
B1R receptor of the rat = target: T1, B1R receptor of the rat (Rattus norvegicus, UniProt P97583); assay: Functional study on the bradykinin receptor 1 (B1R), FLIPR Ca2+ assay, rB1R cells; assay type: cell-based; conditions: agonist Des-Arg9-bradykinin 100 nM, % inhibition compared with the maximum achievable inhibition; for inhibition at 10 µM: CHO-K1, test substance 10 μM, read-out: B1R Antagonism, rat [10 μM] % Inhibition; for B1R Antagonism, rat [10 μM] % Inhibition: test substance 10 μM, rB1R CHO K1 cells
T1 construct: host or cells: CHO K1 cells (Chinese hamster ovary), stably transfected
T1 sequence (P97583 1-337): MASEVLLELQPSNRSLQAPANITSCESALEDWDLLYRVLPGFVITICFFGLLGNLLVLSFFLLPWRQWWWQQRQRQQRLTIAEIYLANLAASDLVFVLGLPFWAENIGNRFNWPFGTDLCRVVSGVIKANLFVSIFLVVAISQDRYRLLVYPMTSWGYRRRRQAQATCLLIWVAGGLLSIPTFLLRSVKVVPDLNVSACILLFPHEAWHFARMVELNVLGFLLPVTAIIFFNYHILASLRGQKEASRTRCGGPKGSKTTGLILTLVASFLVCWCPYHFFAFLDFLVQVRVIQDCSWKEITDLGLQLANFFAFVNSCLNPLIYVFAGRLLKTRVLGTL
Method in brief: (§1)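 FLIPR Ca2+ read-out (Fluo-4, peak fluorescence) in stably transfected CHO K1 cells. Compounds at 10 μM, then 10 min later agonist challenge: human B1R with Lys-Des-Arg9-bradykinin 0.5 nM, rat B1R with Des-Arg9-bradykinin 100 nM; reported as % activation or % of maximal inhibition.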

human B1R receptor = target: T2, human B1R receptor (Homo sapiens, UniProt P46663); assay: Functional study on the bradykinin receptor 1 (B1R), FLIPR Ca2+ assay, hB1R cells; assay type: cell-based; conditions: agonist Lys-Des-Arg9-bradykinin 0.5 nM, % inhibition compared with the maximum achievable inhibition; for inhibition at 10 µM: CHO-K1, test substance 10 μM, read-out: B1R Antagonism, human [10 μM] % Inhibition; for B1R Antagonism, human [10 μM] % Inhibition: test substance 10 μM, hB1R CHO K1 cells
T2 construct: host or cells: CHO K1 cells (Chinese hamster ovary), stably transfected
T2 sequence (P46663 1-353): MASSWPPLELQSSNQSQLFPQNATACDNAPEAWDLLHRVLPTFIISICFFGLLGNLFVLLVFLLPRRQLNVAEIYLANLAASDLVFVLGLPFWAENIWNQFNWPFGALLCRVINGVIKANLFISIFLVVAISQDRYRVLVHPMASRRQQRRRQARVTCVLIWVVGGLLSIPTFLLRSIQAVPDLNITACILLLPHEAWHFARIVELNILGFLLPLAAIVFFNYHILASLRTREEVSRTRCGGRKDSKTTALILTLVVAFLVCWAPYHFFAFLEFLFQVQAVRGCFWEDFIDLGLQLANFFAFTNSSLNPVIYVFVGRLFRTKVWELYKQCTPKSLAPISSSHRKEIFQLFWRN
Method in brief: as §1

Structure (SMILES) | inhibition at 10 µM (B1R receptor of the rat) | inhibition at 10 µM (human B1R receptor) | B1R Antagonism, rat [10 μM] % Inhibition (B1R receptor of the rat) | B1R Antagonism, human [10 μM] % Inhibition (human B1R receptor)
O=C(COCC1CCCCN1S(=O)(=O)c1cccc(Br)c1)N1CCN(c2ccncc2)CC1 (stereo not drawn) [Example 122, 2-((1-(3-bromophenylsulfonyl)piperidin-2-yl)methoxy)-1-(4-(pyridin-4-yl)piperazin-1-yl)ethanone] | 13% | 12.1% | – | –
COc1cc(C)c(S(=O)(=O)N2Cc3ccccc3C[C@H]2COCC(=O)N2CCC(CCN3CCCC3)CC2)c(C)c1 [Example 187, (S)-2-((2-(4-methoxy-2,6-dimethylphenylsulfonyl)-1,2,3,4-tetrahydroisoquinolin-3-yl)methoxy)-1-(4-(2-(pyrrolidin-1-yl)ethyl)piperidin-1-yl)ethanone] | 102% | 100% | – | –
COc1cc(C)c(S(=O)(=O)N2CCCCC2COCC(=O)Nc2cc(-c3ccc(Cl)cc3)n[nH]2)c(C)c1 (stereo not drawn) [Example 537, N-(3-(4-chlorophenyl)-1H-pyrazol-5-yl)-2-((1-(4-methoxy-2,6-dimethylphenylsulfonyl)piperidin-2-yl)methoxy)acetamide] | 98.7% | 12.5% | – | –
Cc1cc(F)cc(C)c1S(=O)(=O)N1CCCCC1COCC(=O)N1CCN(C2CCN(C)CC2)CC1 (stereo not drawn) [Example 169, 2-((1-(4-fluoro-2,6-dimethylphenylsulfonyl)piperidin-2-yl)methoxy)-1-(4-(1-methylpiperidin-4-yl)piperazin-1-yl)ethanone dihydrochloride] | 101% | 100% | – | –
O=C(COCC1Cc2ccccc2N1S(=O)(=O)c1ccc(Cl)c(Cl)c1)NCC1CCCN(Cc2ccccc2)C1 (stereo not drawn) [Example 16, N-(1-benzyl-piperidin-3-ylmethyl)-2-[1-(3,4-dichloro-phenylsulfonyl)-2,3-dihydro-1H-indol-2-ylmethoxy]-acetamide] | 25.5% | 95.9% | – | –
CN(C)C1CCN(C(=O)COCCC2CCCCN2S(=O)(=O)c2cccc3ccccc23)C1 (stereo not drawn) [Example 66, 1-(3-dimethylamino-pyrrolidin-1-yl)-2-[1-(naphthyl-1-sulfonyl)-piperidin-2-ylethoxy]-ethanone] | – | – | 38.64% | 55.38%
COc1cc(C)c(S(=O)(=O)N2CCCCC2COCC(=O)N(CCN(C)C)Cc2ccccc2)c(C)c1 (stereo not drawn) [Example 377] | – | – | 99.56% | 87.21%
COc1cc(C)c(S(=O)(=O)N2Cc3ccccc3CC2COCC(=O)N2CCN(c3ccccc3)CC2)c(C)c1C (stereo not drawn) [Example 479, 2-((2-(4-Methoxy-2,3,6-trimethylphenylsulfonyl)-1,2,3,4-tetrahydroisoquinolin-3-yl)methoxy)-1-(4-phenylpiperazin-1-yl)ethanone] | 99.1% | 32.3% | – | –

Results, then the compound that gave them:

inhibition at 10 µM (B1R receptor of the rat) | inhibition at 10 µM (human B1R receptor) | B1R Antagonism, rat [10 μM] % Inhibition (B1R receptor of the rat) | B1R Antagonism, human [10 μM] % Inhibition (human B1R receptor) | Structure (SMILES)
13.2% | 52.6% | – | – | O=C(COCC1CCCN1S(=O)(=O)c1ccc(Cl)c(Cl)c1)N1CCN(CCN2CCCCC2)CC1 (stereo not drawn) [Example 72, 2-((1-(3,4-dichlorophenylsulfonyl)pyrrolidin-2-yl)methoxy)-1-(4-(2-(piperidin-1-yl)-ethyl)piperazin-1-yl)ethanone]
41.6% | 77.5% | – | – | O=C(COCC1CCCN1S(=O)(=O)c1c(Cl)cc(Cl)cc1Cl)NCCN1CCCC1 (stereo not drawn) [Example 339, N-(2-(pyrrolidin-1-yl)ethyl)-2-((1-(2,4,6-trichlorophenylsulfonyl)pyrrolidin-2-yl)methoxy)acetamide]
65.4% | 75% | – | – | O=C(COCC1Cc2ccccc2CN1S(=O)(=O)c1ccc(Cl)c(Cl)c1)N1CCC(N2CCCC2)CC1 (stereo not drawn) [Example 38, 2-((2-(3,4-dichlorophenylsulfonyl)-1,2,3,4-tetrahydroisoquinolin-3-yl)methoxy)-1-(4-(pyrrolidin-1-yl)piperidin-1-yl)ethanone]
0% | 61.5% | – | – | O=C(COCC1CCCCN1S(=O)(=O)c1ccc(Cl)c(Cl)c1)N1CCN(c2ccc(F)cc2)CC1 (stereo not drawn) [Example 59, 2-[1-(3,4-dichloro-phenylsulfonyl)-piperidin-2-ylmethoxy]-1-[4-(4-fluoro-phenyl)-piperazin-1-yl]-ethanone]
